Converted amounts (≈) assume the structure as drawn. Numbered stars: 1 amine (or outer) side, 2 acyl side, 3 side chain; on linkers, the order of the positions; unused ones are H or OH. Bridge positions count the residues as written; N and C are the ends. Square brackets hold non-standard residues; d marks the D form. Peptide text beside a SMILES is read from it. * marks the point of attachment. Hpg(αMan(1-2)αMan) = N[C@H](C(=O)O)c1ccc(O[C@H]2O[C@H](CO)[C@@H](O)[C@H](O)[C@@H]2O[C@H]2O[C@H](CO)[C@@H](O)[C@H](O)[C@@H]2O)cc1; Octa(2Z,4E)dienoyl(7-Me) = CC(C)C/C=C/C=C\C(=O)*; X1 = NC(=O)[C@@H](O[*:3])[C@H](N[*:1])C(=O)[*:2]; X3 = O=C([C@@H](N[*:1])c1cc(O)cc(O)c1)[*:2]; Hpg(3-Cl) = N[C@H](C(=O)O)c1ccc(O)c(Cl)c1; d(aThr) = C[C@@H](O)[C@@H](N)C(=O)O; dHpg = N[C@@H](C(=O)O)c1ccc(O)cc1; Hpg = N[C@H](C(=O)O)c1ccc(O)cc1; aThr = C[C@H](O)[C@H](N)C(=O)O; dOrn = NCCC[C@@H](N)C(=O)O; X2 = CC(C)CCCCCCC(=O)*

For one data set, the system named is E. coli ATCC 25922. On the procedure: (§1) Assessment of antimicrobial activity of chersinamycin: Chersinamycin was examined for its ability to inhibit bacterial growth by broth microdilution assays against Gram-positive strains B. subtilis ATCC 6051, S. aureus ATCC 25923, and E. faecalis ATCC 29212 and Gram-negative strain E. coli ATCC 25922.
(§2) Minimal inhibitory assays. Antibacterial activity of chersinamycin and positive controls (vancomycin, ampicillin, and ramoplanin A2) were determined by the broth microdilution assay method. Briefly, bacterial strains were grown in cation-adjusted Mueller-Hinton broth. A microtiter plate was prepared by coating wells in 0.2% BSA, and antimicrobial peptides were added with 2-fold dilution steps ranging from 64-0.125 μg mL^−1. Bacteria was added to a final concentration of 10^5 colony forming units and final volume of 100 μL. Plates were incubated at 37° C. for 24 hours, and the MIC was read as the lowest peptide concentration for which no bacterial growth was visualized. Reported values are the average of two replicates.

The conditions of data set [1]: 1% triethylamine in water, room temperature.
Source text: Macrolactone selective hydrolysis. […] The solution was allowed to sit at room temperature for one hour, and then analyzed by MALDI-TOF. After determining that the reaction had gone to completion by complete consumption of the starting material, the reaction mixture was dried and reconstituted in a water/acetonitrile mixture for further MS/MS analyses.
The test system of the next data set is Gram-positive strains. Briefly: Broth microdilution, Gram-positive strains overall. It counts as cell-based. Particulars: Gram-positive strains B. subtilis ATCC 6051, S. aureus ATCC 25923, E. faecalis ATCC 29212. On the procedure: as §1, §2
On the technique in general: Broth dilution looks for growth in wells or tubes with falling amounts of substance.

The next data set has as its system S. aureus ATCC 25923. Particulars: ATCC 25923, 24 h. On the procedure: as §1, §2
A further data set concerns E. faecalis ATCC 29212. As to conditions: ATCC 29212, 24 h. On the procedure: as §1, §2
In the next data set the test system is B. subtilis ATCC 6051. Particulars: ATCC 6051, 24 h. How it is done:
as §1, §2

Data set [2] deals with vancomycin-susceptible and vancomycin-resistant C. difficile strains. As to conditions: cited from earlier work.
For data set [3], the system named is Gram-positive bacterial infections. As to conditions: cited from earlier work.
For data set [4] the following is noted: delivered intravenously; cited from earlier work.
The conditions of data set [5]: cited from earlier work.
For data set [6] the following is noted: administered by intraperitoneal injection; cited from earlier work.
For data set [7] the following is noted: Boger alanine scan comparators; cited from earlier work.

Take `CC(C)CCCCCCC(=O)N[C@@H](CC(N)=O)C(=O)N[C@@H]1C(=O)N[C@H](c2ccc(O)cc2)C(=O)N[C@H](CCCN)C(=O)N[C@H]([C@@H](C)O)C(=O)N[C@@H](c2ccc(O)cc2)C(=O)N[C@H](c2ccc(O)cc2)C(=O)N[C@@H]([C@H](C)O)C(=O)N[C@@H](Cc2ccccc2)C(=O)N[C@H](CCCN)C(=O)N[C@@H](c2ccc(O[C@H]3O[C@H](CO)[C@@H](O)[C@H](O)[C@@H]3O[C@H]3O[C@H](CO)[C@@H](O)[C@H](O)[C@@H]3O)cc2)C(=O)N[C@H]([C@@H](C)O)C(=O)N[C@@H](c2cc(O)cc(O)c2)C(=O)NCC(=O)N[C@@H](C(C)C)C(=O)N[C@H](C)C(=O)N[C@@H](c2ccc(O)c(Cl)c2)C(=O)O[C@@H]1C(N)=O` [Chersinamycin, chersinamycin] (X2-N[X1][dHpg][dOrn][d(aThr)][Hpg][dHpg][aThr]F[dOrn][Hpg(αMan(1-2)αMan)][d(aThr)][X3]GV[dA][Hpg(3-Cl)]; ester 2-C; N-terminus assumed): the entries for the “ability to inhibit bacterial growth, in words” value with E. coli ATCC 25922 (Gram-negative strain E. coli ATCC 25922) and in the data set on Gram-positive strains were “ineffective” and “potent antimicrobial activity”, respectively. For the same compound, the “stability of peptide macrocycle to base” value in data set [1] is on record as “highly base labile”.
A word on the MIC: it is the lowest concentration that inhibits growth of the organism. For the compound `CC(C)C/C=C/C=C\C(=O)N[C@@H](CC(N)=O)C(=O)N[C@@H]1C(=O)N[C@H](c2ccc(O)cc2)C(=O)N[C@H](CCCN)C(=O)N[C@H]([C@@H](C)O)C(=O)N[C@@H](c2ccc(O)cc2)C(=O)N[C@H](c2ccc(O)cc2)C(=O)N[C@@H]([C@H](C)O)C(=O)N[C@@H](Cc2ccccc2)C(=O)N[C@H](CCCN)C(=O)N[C@@H](c2ccc(O[C@H]3O[C@H](CO)[C@@H](O)[C@H](O)[C@@H]3O[C@H]3O[C@H](CO)[C@@H](O)[C@H](O)[C@@H]3O)cc2)C(=O)N[C@H]([C@@H](C)O)C(=O)N[C@@H](c2ccc(O)cc2)C(=O)NCC(=O)N[C@@H](CC(C)C)C(=O)N[C@H](C)C(=O)N[C@@H](c2ccc(O)c(Cl)c2)C(=O)O[C@@H]1C(N)=O` [Ramoplanin, ramoplanin A2] ({Octa(2Z,4E)dienoyl(7-Me)}-N[X1][dHpg][dOrn][d(aThr)][Hpg][dHpg][aThr]F[dOrn][Hpg(αMan(1-2)αMan)][d(aThr)][Hpg]GL[dA][Hpg(3-Cl)]; ester 2-C), the MIC is 0.5 µg/mL (≈ 0.196 µM) with S. aureus ATCC 25923; 0.5 µg/mL (≈ 0.196 µM) in the data set with E. faecalis ATCC 29212; above 64 µg/mL against E. coli ATCC 25922 (ATCC 25922, 24 h); below 0.125 µg/mL in the data set on B. subtilis ATCC 6051. In addition, the “MICs in vitro against C. difficile” value in [2] was 0.25 to 0.50 µg/mL. Moreover, the MICs in vitro in [3] was 0.125 to 2 µg/mL. For the same compound, the hemolysis entry in [4] is listed as “mild to moderately hemolytic”. In data set [5] (in vivo, po), the oral absorption result is given as “not orally absorbed”. Further, the colonic concentrations in [5] (oral delivery) is above 300 µg/mL. Further, in data set [6], the stability of macrolactone result is “susceptible to hydrolysis”.
With “[Dap2]-ramoplanin A2 aglycon [[Dap2]-ramoplanin aglycon]”, the MIC in data set [7] was 0.07 µg/mL.
As for ramoplanin A2 aglycon, the MIC in [7] is 0.11 µg/mL.

Values taken from patent US20230181684A1, “NOVEL ANTIBIOTIC COMPOSITIONS AND METHODS OF MAKING OR USING THE SAME” (priority 2020, published 2023).
